Patent US20040235717A1, “Suppression of androgen receptor transactivation through new pathways to ar and ar coactivators and repressors” (priority 2001, published 2004)
Entries after “also recorded” stand apart in the source; their conditions may differ.

Tests used:
[1] = molecular target: T1, interaction between AR and ARA70 (Homo sapiens, UniProt P10275); assay: Mammalian two-hybrid assay GAL4-ARA70 / VP16-AR in DU145 cells (pG5CAT); assay type: cell-based; conditions: 1 nM DHT
T1 construct: VP16 fused to the AR aa 36-918 (VP16-AR); expressed in transfected cells; host or cells: DU145
T1 sequence (P10275 36-920): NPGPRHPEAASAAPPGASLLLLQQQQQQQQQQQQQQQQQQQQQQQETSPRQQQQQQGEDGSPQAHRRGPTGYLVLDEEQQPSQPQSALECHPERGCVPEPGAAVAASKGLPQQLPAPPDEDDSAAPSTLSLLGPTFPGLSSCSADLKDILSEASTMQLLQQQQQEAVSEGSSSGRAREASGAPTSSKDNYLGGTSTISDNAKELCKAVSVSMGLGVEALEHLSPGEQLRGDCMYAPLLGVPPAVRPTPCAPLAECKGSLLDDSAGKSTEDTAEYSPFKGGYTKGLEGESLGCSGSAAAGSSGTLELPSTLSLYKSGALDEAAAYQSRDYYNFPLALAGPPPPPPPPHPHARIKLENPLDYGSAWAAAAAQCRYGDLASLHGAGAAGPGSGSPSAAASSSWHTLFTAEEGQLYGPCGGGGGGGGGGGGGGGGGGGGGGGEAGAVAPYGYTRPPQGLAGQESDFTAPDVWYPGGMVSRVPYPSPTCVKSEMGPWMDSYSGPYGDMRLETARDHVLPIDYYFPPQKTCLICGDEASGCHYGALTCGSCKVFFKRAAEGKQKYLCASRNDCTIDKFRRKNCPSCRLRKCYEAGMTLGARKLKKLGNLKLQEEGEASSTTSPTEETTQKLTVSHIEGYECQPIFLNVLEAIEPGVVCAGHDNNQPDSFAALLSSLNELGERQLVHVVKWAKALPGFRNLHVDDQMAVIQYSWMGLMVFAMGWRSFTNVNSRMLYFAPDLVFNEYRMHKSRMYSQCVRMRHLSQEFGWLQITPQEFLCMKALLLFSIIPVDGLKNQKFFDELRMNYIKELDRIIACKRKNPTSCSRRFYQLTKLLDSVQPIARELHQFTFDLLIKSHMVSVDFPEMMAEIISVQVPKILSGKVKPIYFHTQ
Excerpt: 257. […] Onate, S. A. et al., Science 270, 1354-1357 (1995); Voegel, J. J. et al., EMBO J. 15, 3667-3675 (1996); Yeh, S. et al., Proc. Natl. Acad. Sci. USA 93, 5517-5521(1996); Yeh, S. et al., Proc. Natl. Acad. Sci. USA 95, 5527-5532 (1998); Fujimoto, N. et al., J. BioI. Chem. 274, 8316-8321 (1999); Miyamoto, H. et al., Proc. Natl. Acad. Sci. USA 95 11083-11088 (1998); Kang, H. Y. et al., J. BioI. Chem. 274, 8570-8576 (1999); Yeh, S. et al., Biochem. Biophys. Res. Commun. 248, 361-367 (1998). […] Yeh, S. et al., Proc. Natl. Acad. Sci. USA 93, 5517-5521(1996); Yeh, S. et al., Proc. Natl. Acad. Sci. USA 95, 5527-5532 (1998). […] The interaction between AR and ARA70 was determined by CAT assay using pG5CAT as reporter. […] In contrast, the addition of […] between the AR and ARA70 (FIG. 4a, lane 2 vs 5 and lane 6 vs 8). Similar repression effects also occurred when we replaced ARA70 with other AR coactivators, such as ARA54 or TIF2. Kang, H. Y. et al., J. BioI. Chem. 274, 8570-8576 (1999); Voegel, J. J. et al., EMBO J. 15, 3667-3675 (1996). cAkt and dAkt, however, had very little effect on the interaction between GAL4 fused AR-LBD653-918 and VP16-ARA 70 (VP16 fused ARA70), VP16-ARA54, or VP16-TIF2.
GAL4DBD fused to ARA70 aa 176-401 (GAL4-ARA70), and VP16 fused to the AR aa 36-918 (VP16-AR) were transfected into DU145 cells in the presence or absence of cAkt, dAkt, and LY294002.

p21 expression = assay: p21 promoter activity (luciferase) and p21 protein expression; assay type: cell-based
Experimental: 18. […] (A) Akt suppressed androgen/AR-induced p21 promoter activity. […] (B) Androgen/AR-induced PC-3(AR)6 apoptosis and p21 protein expression was blocked by Akt PC-3(AR)6 was transfected with pCDNA3, cAkt, or dAkt, as indicated, for 16 h. […] (C) AR-induced p21 protein expression was enhanced by dAkt in LNCaP cells. […] LNCaP stable transfection with dAkt was confirmed by western blot assay using phospho-Akt (Ser473) antibody. […] TPA was then added for another 24 h and cell apoptosis was determined by TUNEL assay. […] IGF-1 was added for another 30 min, followed by 10 nM TPA treatment for another 24 h. The apoptosis was determined by TUNEL assay. The data are means±s.d. from three independent experiments.

AR transactivation = assay: AR transactivation, MMTV-luc / (ARE)4-luc luciferase reporter assay; assay type: cell-based; conditions: LNCaP; MMTV-luc and (ARE)4-luc; 10 nM DHT
[2] = test system: estrogen receptor (ER) transactivation; assay: ER transactivation, ERE-luc in PC-3 cells transfected with ERα; assay type: cell-based, human; conditions: 10 nM E2
Experimental: 26. […] The cells were harvested and assayed for luciferase activity using MMTV-luc as a reporter. […] The cells were harvested for Northern blot analysis. […] The cells were harvested and assayed for the luciferase activity. […] (E) The PC-3 cells were transfected with ERα along with plasmids, as indicated, using ERE-luc as a reporter for 16 h, followed by 10 nM E2 treatment for another 16 h. The cells were harvested for luciferase assay. Data are means±s.d. from three independent experiments.
312. […] The cells were lysed and the luciferase activity was detected by the dual luciferase assay according to standard procedures.

- p21 expression in response to androgen (p21 expression; LNCaP stably transfected with dAkt, 10 nM DHT 2 days, 2.5 fold without dAkt): 14.5 fold
Substance: dAkt: dominant-negative Akt, a kinase deficient mutant, K179A
- Interaction between AR and ARA70 (CAT activity) [1]: further enhanced the interaction of AR and ARA70; also recorded: further enhanced the interaction between the AR and ARA70
- Effect on androgen/AR-induced p21 expression (p21 expression; PC-3 cells, transfected): enhanced p21 expression in a dose-dependent manner
- Effect on AR transactivation (AR transactivation): enhanced AR transactivation in both MMTV-Luc and (ARE)4-Luc
- Effect on ER transactivation [2]: suppressed ER transactivation
